# Measured values taken from publication PMC8538351 (Pharmaceuticals, 2021).
# Like-named read-outs stand apart in the source and are kept apart here.
# Columns and labels:
# SARS-CoV-2 [1] = assay: Cytopathic effect protection assay (crystal violet) in Vero E6 cells; assay type: cell-based; details: Vero E6, 72 h
# Experimental: In order to explore for the presence of anti-SARS-CoV-2 metabolites in M. polymorpha, we prepared crude extracts of two different M. polymorpha subspecies (subsp. ruderalis from Japan and subsp. polymorpha, from Spain). The anti-SARS-CoV-2 activity of the resulting crude extracts was tested in Vero E6 cell monolayers infected with the SARS-CoV-2 NL2020 strain (Figure 1A). Infection was carried out at a multiplicity of infection (MOI) of 0.001 for 72 h. In the absence of antiviral activity, SARS-CoV-2 infection triggers cell death of Vero E6 cells and results in loss of cell biomass in the well, which is readily visualized as a strong reduction in crystal violet staining (DMSO, Figure 1A). […] Thus, protective activity may be used as a rapid qualitative surrogate assay to facilitate identification of substances with antiviral potential.
# Vero E6 or Huh7-ACE2 cell monolayers were inoculated (MOI = 0.001) in the presence of a wide range of two-fold dilutions of the crude, or partially purified extracts, or pure compounds and incubated for 72 h. Cytopathic effect and lack thereof was visualized by crystal violet staining, as previously described. Untreated and solvent-treated cells were included in each plate as controls. […] A minimum virus dose (10 infectious units/well; MOI 0.001 in 1e4 cells/well) capable of producing overt cytopathic effect was used. […]
# SARS-CoV-2 [2] = assay: Cytopathic effect protection assay (crystal violet) in Huh7-ACE2 cells; assay type: cell-based; details: Huh7-ACE2, 72 h
# Experimental: To confirm the antiviral potential of PheoA, a commercially available PheoA stock solution was serially diluted and mixed with a virus stock to inoculate Vero E6 and Huh7-ACE2 cells (human hepatoma cells expressing ACE2). Cells were fixed 72 h post-inoculation and stained with crystal violet to visualize the integrity of the cell monolayer.
# Vero E6 or Huh7-ACE2 cell monolayers were inoculated (MOI = 0.001) in the presence of a wide range of two-fold dilutions of the crude, or partially purified extracts, or pure compounds and incubated for 72 h. Cytopathic effect and lack thereof was visualized by crystal violet staining, as previously described. Untreated and solvent-treated cells were included in each plate as controls. […] A minimum virus dose (10 infectious units/well; MOI 0.001 in 1e4 cells/well) capable of producing overt cytopathic effect was used. Lower virus doses produce visible plaques and complete absence of CPE coincides with the expected endpoint dilution, around 8-fold lower dilutions.
# SARS-CoV-2 [3] = assay: Antiviral activity by immunofluorescence microscopy in Vero E6 cells; assay type: cell-based; details: for EC50: Severe acute respiratory syndrome coronavirus 2, Vero C1008, 48 h
# Experimental: (§1) Vero E6, A549-ACE2 or Calu3 were seeded onto 96-well plates as described above and infected in the presence of the indicated compound dose (MOI = 0.01). Twenty-four hours post infection (48 h for Calu3 cells), cells were fixed for 20 min at room temperature with a 4% formaldehyde solution in PBS, washed twice with PBS and incubated with incubation buffer (3% BSA; 0.3% Triton X100 in PBS) for 1 h. A monoclonal antibody against the N protein was diluted in the incubation buffer (1:2000, v/v; Genetex HL344) and incubated with the cells for 1 h; after this time, cells were washed with PBS and subsequently incubated with a 1:500 (v/v) dilution of a goat anti-rabbit conjugated to Alexa 488 (Invitrogen-Carlsbad, Carlsbad, CA, USA). Nuclei were stained with DAPI (Life Technologies, Budapest, Hungary) as recommended by the manufacturer during the secondary antibody incubation. Cells were washed with PBS and imaged using an automated multimode reader Spark Cyto (TECAN-Grödig, Austria).
# (§2) All the infection experiments were performed by mixing the virus and compound dilutions 1:1 (v/v) before addition to the target cells. In the time-of-addition experiments, Vero E6 cultures were inoculated (MOI from 0.5–1) for 1 h in the presence or absence of the compounds at 37 °C. Subsequently, virus-compound mixtures were left at all times, or removed and replaced with fresh 2% FBS complete media containing or not the tested compounds (see experimental scheme in Figure 7 for details). Cells were fixed 6 h post-inoculation.
# (§3) Descriptive statistics were calculated using Microsoft Excel. One-way ANOVA and post hoc tests were calculated using IBM SPSS Software Package (version 26). EC50 and EC90 values were obtained employing the PROBIT regression method using IBM SPSS vs26, except for values in Table 1 that were calculated by graphic interpolation of individual curves.
# SARS-CoV-2 [4] = assay: Antiviral activity by immunofluorescence microscopy in A549-ACE2 cells; assay type: cell-based; details: A549-ACE2, MOI 0.01, 48 h; for EC50: Severe acute respiratory syndrome coronavirus 2, A549-ACE2, 48 h
# Experimental: as §1, §2, §3
# SARS-CoV-2 [5] = assay: Antiviral activity by immunofluorescence microscopy in Calu3 cells; assay type: cell-based; details: Calu3, MOI 0.005, 48 h; for EC50: Severe acute respiratory syndrome coronavirus 2, Calu-3, 48 h
# Experimental: as §1, §2, §3
# SARS-CoV-2 [6] = assay: Antiviral activity by immunofluorescence microscopy, summary for Vero E6, A549-ACE2 and Calu3; assay type: cell-based; details: Severe acute respiratory syndrome coronavirus 2, all tested cell lines
# Experimental: (§4) PheoA antiviral activity was further confirmed by immunofluorescence microscopy–to estimate virus propagation–and an MTT assay–to evaluate compound cytotoxicity. […] This dataset was used to determine effective concentrations (EC50 and EC90) and cytotoxicity indexes. The estimated EC50 and EC90 values were around 50 nM and 100 nM, respectively, with a wide therapeutic window in all tested cell lines (Table 1)
# as §1
# [7] = Cytotoxicity by MTT assay in Vero E6 cells; assay type: cell-based, Green Monkey; details: green monkey, Vero E6 cells; Vero-E6, MTT, 48 h
# Experimental: (§5) Cell monolayers were seeded in 96-well plates. The day after cells were treated with a wide range of compound concentrations and forty-eight hours later they were subjected to an MTT assays using standard procedures. The CC50 values were graphically interpolated from dose–response curves obtained with three biological replicates.
# [8] = Cytotoxicity by MTT assay in A549-ACE2 cells; assay type: cell-based; details: human
# Experimental: as §5
# [9] = Cytotoxicity by MTT assay in Calu3 cells; assay type: cell-based; details: human
# Experimental: as §5
# [10] = test system: Vero E6, A549-ACE2 and Calu3 cells; assay: Cytotoxicity by MTT assay, summary for Vero E6, A549-ACE2 and Calu3; assay type: cell-based; details: all three models, assayed doses
# Experimental: as §4, §5
# SARS-CoV-2 [11] = assay: Extracellular viral RNA load by RT-qPCR in A549-ACE2 cells; assay type: cell-based; details: A549-ACE2, 48 h
# HCV = assay: microbe, parasite or virus in culture; assay type: cell-based; details: Hepatitis C virus, Huh-7, 48 h
# hCoV-229E = assay: microbe, parasite or virus in culture; assay type: cell-based; details: Human coronavirus 229E, Huh-7, 48 h
# West Nile Virus = assay: microbe, parasite or virus in culture; assay type: cell-based; details: Huh-7, 48 h
# [12] = test system: vesicular stomatitis virus (VSV-GFP); assay: microbe, parasite or virus in culture; assay type: cell-based; details: Huh-7
# [13] = test system: vesicular stomatitis virus (VSV-GFP); assay: microbe, parasite or virus in culture; assay type: cell-based; details: A549-ACE2
# SARS-CoV-2 [14] = assay: Combination treatment of PheoA with RMDV in Vero E6 cells, immunofluorescence microscopy; assay type: cell-based; details: Severe acute respiratory syndrome coronavirus 2, Vero C1008, 24 h, read-out: EC50 of individual treatment
# Experimental: Thus, combination treatments were performed with increasing doses of PheoA and RMDV. Drugs were mixed in different proportions, combined with infectious SARS-CoV-2 (MOI = 0.01) and the mixtures were used to inoculate Vero E6 cells. Twenty-four hours later, cells were fixed and processed to determine the infection efficiency as using immunofluorescence microscopy. […] Increasing concentrations of PheoA improved RMDV efficacy and viceversa.
# Synergy analysis was carried out in the web-based platform Synergy Finder (https://synergyfinder.fimm.fi/, accessed on 25 September 2021).
# SARS-CoV-2 [15] = assay: Time-of-addition experiment in Vero E6 cells (single-cycle infection); assay type: cell-based; details: for efficacy when added during the virus entry phase (in words): versus maintained at all times
# Experimental: Next, antiviral efficacy of PheoA was compared when PheoA was (i) present at all times, (ii) added only during virus inoculation, or (iii) added only after virions had effectively penetrated the cells in single-cycle infection experiments ([…]).
# as §2
# [16] = test system: retroviral vectors pseudotyped with SARS-CoV-2 Spike protein (SARS2pp); assay type: cell-based
# [17] = test system: retroviral vectors pseudotyped with VSV glycoprotein (VSVpp); assay type: cell-based
# SARS-CoV-2 virions = assay: Virucidal assay: pre-incubation of virions, residual infectivity titer by TCID50; assay type: cell-based; details: for virus infectivity after pre-incubation (in words): 340 nM
# Huh7 cells = details: Huh7, 48 h
# SARS-CoV-2 [18] = assay: Viral RNA load by RT-qPCR in Vero E6 cells; assay type: cell-based; details: 25 µM, Vero E6, MOI 0.001, 72 h post infection
# SARS-CoV-2 [19] = details: monolayers protected down to this concentration; read-out: reported EC50; cited from earlier work
# Vero E6 cells = assay: Cytotoxicity by MTT assay in Vero E6 cells; assay type: cell-based, Green Monkey; details: Vero E6, MTT, parallel cultures
# Experimental: as §5
# [20] = mean ± SD n = 3, graphic interpolation
# [21] = Vero E6, MOI 0.005, 48 h, PROBIT regression
compound,measurement,setting,value
"C=Cc1c(C)c2cc3nc(c4c5[nH]c(cc6nc(cc1[nH]2)C(C)=C6CC)c(C)c5C(=O)[C@@H]4C(=O)OC)[C@@H](CCC(=O)O)[C@@H]3C [PheoA, Pheophorbide a]",concentration with consistent protective capacity,SARS-CoV-2 [1],above 65 nM
same,concentration with consistent protective capacity,SARS-CoV-2 [2],above 65 nM
same,EC50,"SARS-CoV-2 [3]; Vero-E6, MOI 0.005, 48 h, mean ± SD n = 3, graphic interpolation",0.054 ± 0.013 µM
same,EC90,"SARS-CoV-2 [3]; Severe acute respiratory syndrome coronavirus 2, Vero C1008, Vero-E6, MOI 0.005, 48 h, mean ± SD n = 3",0.106 ± 0.016 µM
same,EC50,SARS-CoV-2 [4]; [20],0.062 ± 0.025 µM
same,EC90,"SARS-CoV-2 [4]; Severe acute respiratory syndrome coronavirus 2, mean ± SD n = 3",0.201 ± 0.084 µM
same,EC50,SARS-CoV-2 [5]; [20],0.035 ± 0.02 µM
same,EC90,"SARS-CoV-2 [5]; Severe acute respiratory syndrome coronavirus 2, Calu-3, mean ± SD n = 3",0.098 ± 0.008 µM
same,EC50,SARS-CoV-2 [6]; read-out: estimated EC50,~0.05 µM
same,EC90,SARS-CoV-2 [6]; read-out: estimated EC90,~0.1 µM
same,CC50 at 48 h,[7],> 8.42 µM
same,CC50 at 48 h,[8],2.6 ± 0.5 µM
same,CC50 at 48 h,[9],> 8.42 µM
same,cytotoxicity (in words),[10],no cytotoxicity was observed
same,viral RNA accumulation (in words),SARS-CoV-2 [11]; increasing concentrations,reduced viral RNA accumulation in a dose-dependent manner
same,EC50,HCV,0.3 µM
same,EC50,hCoV-229E,0.128 µM
same,EC50,West Nile Virus,0.064 µM
same,EC50,[12],0.506 µM
same,EC50,[13],0.578 µM
same,EC50,SARS-CoV-2 [14],0.04 µM
same,antiviral activity when maintained at all times (in words),"SARS-CoV-2 [15]; Vero E6, MOI 5, 6 h",expected antiviral activity
same,efficacy when added during the virus entry phase (in words),"SARS-CoV-2 [15]; Vero E6, MOI 5, 6 h",nearly identical
same,efficacy when added after virion internalization,"SARS-CoV-2 [15]; Vero E6, MOI 5, fixed 6 h post-inoculation",ca. 6 % of the maximum efficacy
same,maximum reduction of infection efficiency,"[16]; maximum dose 675 nM, 48 h",≤ 40%
same,maximum reduction of infection efficiency,[17],≤ 40%
same,virus infectivity after pre-incubation (in words),SARS-CoV-2 virions; 30 min,reduced partially
same,virus infectivity after pre-incubation (in words),SARS-CoV-2 virions; 60 min,below detection limits
same,virus infectivity after pre-incubation (in words),"SARS-CoV-2 virions; up to 15 min, room temperature",did not have any significant impact on virus infectivity
same,dose giving statistically significant reduction in remaining virus infectivity,"SARS-CoV-2 virions; 30 min pre-incubation, 10^5 TCID50/mL, room temperature",above 67 nM
same,cytotoxicity (in words),Huh7 cells,no cytotoxicity was observed
"CCC(CC)COC(=O)[C@H](C)N[P@](=O)(OC[C@H]1O[C@@](C#N)(c2ccc3c(N)ncnn23)[C@H](O)[C@@H]1O)Oc1ccccc1 [RMDV, Remdesivir]",viral RNA load,SARS-CoV-2 [18],undetectable
same,reduction of extracellular viral RNA,SARS-CoV-2 [11]; 5 µM,two orders of magnitude
same,EC50,SARS-CoV-2 [14],2 µM
same,antiviral activity when maintained at all times (in words),"SARS-CoV-2 [15]; Vero E6, MOI 5, 6 h",highly effective at reducing infection efficiency
same,EC50,SARS-CoV-2 [19],1.5 µM
"C=Cc1c(C)c2cc3nc(c4c5[nH]c(cc6nc(cc1[nH]2)C(C)=C6CC)c(C)c5C(=O)[C@@H]4C(=O)OC)[C@@H](CCC(=O)O)[C@@H]3C [Semi-synthetic PheoA, Pheophorbide a]",EC50,SARS-CoV-2 [3]; [21],0.051 µM
same,EC50,SARS-CoV-2 [4]; PROBIT regression,0.074 µM
same,EC50,SARS-CoV-2 [5]; PROBIT regression,0.038 µM
"Cc1ccc(NC(=O)c2ccc(CN3CCN(C)CC3)cc2)cc1Nc1nccc(-c2cccnc2)n1 [imatinib, Imatinib]",efficacy when added after virion internalization (in words),"SARS-CoV-2 [15]; 15 µM, Vero E6, MOI 5, 6 h",greatly lost efficacy
same,antiviral activity when maintained at all times (in words),"SARS-CoV-2 [15]; Vero E6, MOI 5, 6 h",expected antiviral activity
same,efficacy when added during the virus entry phase (in words),"SARS-CoV-2 [15]; Vero E6, MOI 5, 6 h",comparable efficacy
same,entry inhibition (in words),[16]; 15 µM,selectively inhibited SARS2pp
same,entry inhibition (in words),[17]; 15 µM,not VSVpp entry
"C=Cc1c(C)c2cc3nc(c4c5[nH]c(cc6nc(cc1[nH]2)C(C)=C6CC)c(C)c5C(=O)C4)[C@@H](CCC(=O)O)[C@@H]3C [pPheoA, pyropheophorbide a]",EC50,SARS-CoV-2 [3]; [21],0.185 µM
same,cytotoxicity (in words),Vero E6 cells,absence of measurable cytotoxicity
